# Key:
# Experiment in all cases: fluorescence-based COX inhibitor assay kit
# Assay type in all cases: biochemical
# COX-1 = molecular target: T1, COX-1 (Ovis aries, UniProt P05979); settings: […] compound
# T1 construct: gene PTGS1; construct not described
# T1 sequence (P05979 25-600): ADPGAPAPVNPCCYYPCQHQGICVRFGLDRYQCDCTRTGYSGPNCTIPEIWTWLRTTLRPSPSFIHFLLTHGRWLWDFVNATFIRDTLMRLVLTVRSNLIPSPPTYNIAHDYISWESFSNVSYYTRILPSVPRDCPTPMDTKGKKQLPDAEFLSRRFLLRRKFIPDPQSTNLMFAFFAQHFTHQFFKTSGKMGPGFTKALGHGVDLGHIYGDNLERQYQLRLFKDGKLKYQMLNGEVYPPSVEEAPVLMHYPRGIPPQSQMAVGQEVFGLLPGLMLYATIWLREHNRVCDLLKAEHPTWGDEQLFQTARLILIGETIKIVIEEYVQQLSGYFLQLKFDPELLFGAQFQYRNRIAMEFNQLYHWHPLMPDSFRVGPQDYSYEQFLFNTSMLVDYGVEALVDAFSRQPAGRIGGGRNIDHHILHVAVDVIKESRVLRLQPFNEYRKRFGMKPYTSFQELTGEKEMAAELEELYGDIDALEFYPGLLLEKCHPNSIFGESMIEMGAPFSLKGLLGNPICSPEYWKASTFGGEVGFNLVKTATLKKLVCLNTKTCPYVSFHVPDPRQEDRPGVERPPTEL
# From the text: fluorescence-based COX inhibitor assay kit on COX-1
# COX-2 [1] = molecular target: T2, COX-2 (Homo sapiens, UniProt P35354)
# T2 construct: gene PTGS2; construct not described
# T2 sequence (P35354 18-604): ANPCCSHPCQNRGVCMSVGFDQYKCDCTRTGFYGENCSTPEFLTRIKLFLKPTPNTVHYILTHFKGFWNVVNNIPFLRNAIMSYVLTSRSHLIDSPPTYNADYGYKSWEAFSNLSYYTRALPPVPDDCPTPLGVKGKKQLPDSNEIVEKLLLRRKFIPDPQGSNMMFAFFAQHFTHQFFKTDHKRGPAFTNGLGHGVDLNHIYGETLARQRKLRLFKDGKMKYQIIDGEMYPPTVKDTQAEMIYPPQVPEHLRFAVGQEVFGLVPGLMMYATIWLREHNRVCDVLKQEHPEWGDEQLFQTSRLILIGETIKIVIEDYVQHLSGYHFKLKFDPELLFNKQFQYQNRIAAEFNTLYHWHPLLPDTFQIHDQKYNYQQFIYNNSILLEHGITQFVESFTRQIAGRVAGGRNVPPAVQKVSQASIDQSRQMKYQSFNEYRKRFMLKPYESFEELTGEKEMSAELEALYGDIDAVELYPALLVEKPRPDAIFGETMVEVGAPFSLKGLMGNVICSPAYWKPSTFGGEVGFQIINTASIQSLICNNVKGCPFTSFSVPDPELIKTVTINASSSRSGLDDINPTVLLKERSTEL
# COX-2 [2] = molecular target: T2, COX-2; settings: […] compound
Substance,% Inhibition @ 100 μM / COX-1 (COX-1) [%],other results
[Ru(η^6-p-cymene)-2-{ethyl (R/S)-2-[4-(2-fluorobiphenyl-4-yl)propanoic acid ester]-closo-C2B9H10}] [4b],40,–
[Ru(η^6-p-cymene)-1-{methyl (R/S)-2-[4-(2-fluorobiphenyl-4-yl)propanoic acid ester]-closo-C2B9H10}] [4a],33,–
Cesium 1-(2′-hydroxyethyl)-nido-carborane [2b],–,IC50 (COX-2 [1]): 84.1 µM
[Ru(η^6-p-cymene)-2-{ethyl (R/S)-2-[4-(2-propylphenyl)propanoic acid ester]-closo-C2B9H10}] [6b],30,–
Cesium 1-(1′-hydroxymethyl)-nido-carborane [2a],–,% Inhibition @ 100 μM / COX-2 (COX-2 [2]): 38%

# Source: article PMC12608622, “Novel Ruthenacarborane–NSAID Conjugates” (Molecules, 2025)
